Our source for the TNF-α, Viability and Nitrite values is patent publication US11440880B2, “Thalidomide analogs and methods of use” (The USA, as represented by the Secretary, Department of …, priority 2015, dated 2022).

SMILES strings stand for the structures.

Format in all cases: cell-based, mouse
Design in all cases: key: NS=not significant; a “+” sign=anti-inflammatory or increased cell numbers; a “−” sign=cell toxicity or pro-inflammatory

One data set concerns TNF-α protein. The experiment in a line: TNF-α protein level (ELISA) in LPS-challenged RAW 264.7 cells. Conditions: LPS 30 or 60 ng/mL, 24 h. As to the method: (§1) Nitrite levels in the culture media were measured by use of the Griess Reagent System (Promega, Madison, Wis.), following the manufacturer's protocol. The O.D. of unknown samples was read at 520 nm λ, compared to a sodium nitrite standard curve (1.5 μM to 100 μM) and nitrite measured media concentrations expressed as μM units. As the lowest nitrite concentration on the Griess Reagent System standard curve was 1.5 μM, this was chosen as the effective cutoff for defining measurable nitrite concentrations. TNF-α protein levels were measured by use of an ELISA specific for mouse TNF-α protein (BioLegend, San Diego, Calif.) and are expressed as a % change from their appropriate control or as pg/ml.
(§2) RAW 264.7 cells obtained from ATCC (Manassas, Va., USA) were grown in DMEM media supplemented with 10% FCS, penicillin 100 μg/ml and streptomycin 100 μg/ml, and maintained at 37° C. and 5% CO2. Cells were seeded in 24 well plates and, 24 hours later, were utilized in studies. One hour prior to the initiation of any study, the seeding media was replaced with fresh media (1 mL), and the cells were allowed to equilibrate at 37° C. and 5% CO2.
(§3) RAW 264.7 cells were challenged with LPS (Sigma, St Louis, Mo.: serotype 055:B5) from at a final concentration of 30 or 60 ng/mL. This concentration of LPS in RAW 264.7 cells induces a sub-maximal rise in both TNF-alpha and nitrite levels without a loss in cellular viability. This sub-maximal rise is useful for assessing whether the addition of an experimental drug can either lower or further raise levels of TNF-α and nitrite. Twenty four hours following the addition of LPS, conditioned media was harvested and analyzed for quantification of secreted TNF-α protein and nitrite levels. Fresh media was replaced into the wells and cell viability was then assessed.
(§4) Thalidomide and analogs were prepared in tissue culture grade DMSO (Sigma). RAW 264.7 cells were pretreated with thalidomide, analogues or vehicle one hour prior to a challenge with LPS. The effects of various concentrations of thalidomide analogues were assessed. All compounds were synthesized to a chemical purity of >99.5%, as assessed by chemical characterization by a combination of 1H NMR, 13C NMR and GC/MS analyses (Bruker AC-300 spectrometer, together with elemental analyses (Atlantic Microlab, Inc., Norcross, Ga.).
Background: ELISA stands for enzyme-linked immunosorbent assay.

Another data set concerns RAW 264.7 cells. Nature of the data set: Cell viability (CellTiter 96 AQueous One) of LPS-challenged RAW 264.7 cells. As to the method: The CellTiter 96® AQueous One Solution Cell Proliferation Assay (Promega, Madison, Wis.) is routinely used as an assay of cell proliferation, and was used according to the manufacturer's recommendations. Changes in cellular health status are determined by use of indirect measures related to the formation of a colored tetrazolium dye product that can be measured spectrophotometrically at 490 nm λ. […] Optical densities (expressed as O.D.s) were measured after various incubations.
as §2, §3, §4

Data set [1] relates to nitrite levels in the culture media. Nature of the data set: Nitrite level (Griess Reagent System) in LPS-challenged RAW 264.7 cells. Conditions: LPS 30 or 60 ng/mL, 24 h. Here is the method:
as §1, §2, §3, §4
A general note: Griess reagent forms a coloured azo dye with nitrite.

In the case of `Nc1cccc2c1CN([C@@H]1C[C@H]3CC[C@@H]1C3)C2=O` [Compound 100], the TNF-α result with TNF-α protein (1 μM), with TNF-α protein (10 μM) and with TNF-α protein (30 μM) was “NS” throughout. The Viability entry with RAW 264.7 cells (1 μM), in the data set with RAW 264.7 cells (10 μM) and in the data set on RAW 264.7 cells (30 μM) was “NS” in each case. Besides, the Nitrite result in data set [1] (1 μM), in data set [1] (10 μM) and in data set [1] (30 μM) was “NS” throughout.

In the case of `O=C1c2cccc([N+](=O)[O-])c2CN1[C@H]1C[C@H]2CC[C@@H]1C2` [Compound 101], the TNF-α entry in the data set on TNF-α protein (1 μM) is reported as “NS”; in the data set on TNF-α protein (10 μM) it was “NS”; with TNF-α protein (30 μM) it was “+”. The results for the Viability entry in the data set with RAW 264.7 cells (1 μM), in the data set on RAW 264.7 cells (10 μM) and with RAW 264.7 cells (30 μM) were “−”, “−” and “NS”, respectively. Also, the Nitrite result in data set [1] (1 μM), in data set [1] (10 μM) and in data set [1] (30 μM) was “+” each time.

Consider `Nc1cccc2c1CN([C@H]1C[C@H]3CC[C@@H]1C3)C2=O` [Compound 102], for which the TNF-α result in the data set with TNF-α protein (1 μM), with TNF-α protein (10 μM) and with TNF-α protein (30 μM) was “NS” each time. For the same compound, the Viability result with RAW 264.7 cells (1 μM), in the data set on RAW 264.7 cells (10 μM) and with RAW 264.7 cells (30 μM) was “NS” each time. Moreover, the Nitrite entry in data set [1] (1 μM), in data set [1] (10 μM) and in data set [1] (30 μM) was “NS” throughout.

Consider `CC1(C)[C@@H]2CC[C@H](CN3Cc4c(cccc4[N+](=O)[O-])C3=O)[C@H]1C2` [Compound 103], for which the values for the TNF-α result with TNF-α protein (1 μM), with TNF-α protein (10 μM) and in the data set on TNF-α protein (30 μM) were “NS”, “+” and “SIG”, respectively. Also, the Viability entry in the data set on RAW 264.7 cells (1 μM) is given as “NS”; in the data set on RAW 264.7 cells (10 μM), “NS”; in the data set on RAW 264.7 cells (30 μM), “SIG”. The results for the Nitrite result in data set [1] (1 μM), in data set [1] (10 μM) and in data set [1] (30 μM) were “+”, “+” and “NS”, respectively.

As for `CC1(C)[C@@H]2CC[C@H](CN3Cc4c(N)cccc4C3=O)[C@H]1C2` [Compound 104], the TNF-α entry with TNF-α protein (1 μM), in the data set on TNF-α protein (10 μM) and in the data set on TNF-α protein (30 μM) was “NS” each time. Moreover, the Viability entry with RAW 264.7 cells (1 μM), with RAW 264.7 cells (10 μM) and with RAW 264.7 cells (30 μM) was “NS” each time. The Nitrite result in data set [1] (1 μM), in data set [1] (10 μM) and in data set [1] (30 μM) was “−” throughout.

As to `C[C@@H]1[C@@H](N2C=C3C(=CC=C/C3=N\OO)C2=O)C[C@H]2C[C@@H]1C2(C)C` [Compound 105], the TNF-α result in the data set on TNF-α protein (1 μM) was “NS”; in the data set on TNF-α protein (10 μM), “NS”; in the data set with TNF-α protein (30 μM) it was “+”. Moreover, the Viability result with RAW 264.7 cells (1 μM) was “NS”; in the data set on RAW 264.7 cells (10 μM) it was “NS”; in the data set with RAW 264.7 cells (30 μM), “−”. In addition, the Nitrite entry is “NS” in data set [1] (1 μM), “+” in data set [1] (10 μM) and “+” in data set [1] (30 μM).

With `CC1(C)[C@@H]2CC[C@H](CN3C(=O)C4CC=CCC4C3=O)[C@H]1C2` (stereo partly drawn) [Compound 112], the TNF-α entry with TNF-α protein (10 μM) is listed as “NS”; with TNF-α protein (30 μM), “+”; in the data set on TNF-α protein (60 μM) it was “+”. In addition, the Viability result in the data set with RAW 264.7 cells (10 μM), with RAW 264.7 cells (30 μM) and with RAW 264.7 cells (60 μM) was “−” in each case. The Nitrite result in data set [1] (10 μM) is listed as “NS”; in data set [1] (30 μM) it was “+”; in data set [1] (60 μM) it was “+”.

Take `CC1(C)[C@@H]2CC[C@H](CN3C(=O)C4C5C=CC(C5)C4C3=O)[C@H]1C2` (stereo partly drawn) [Compound 113]: the TNF-α entry is listed as “NS” in the data set on TNF-α protein (10 μM), “+” in the data set on TNF-α protein (30 μM) and “+” with TNF-α protein (60 μM). The Viability result with RAW 264.7 cells (10 μM), with RAW 264.7 cells (30 μM) and with RAW 264.7 cells (60 μM) was “−” in each case. The values for the Nitrite entry in data set [1] (10 μM), in data set [1] (30 μM) and in data set [1] (60 μM) were “NS”, “+” and “+”, respectively.

With `CC1(C)[C@@H]2CC[C@H](CN3C(=O)C4C5C=CC(C5)C4C3=O)[C@H]1C2` (stereo partly drawn) [Compound 114], the TNF-α result in the data set with TNF-α protein (10 μM), in the data set with TNF-α protein (30 μM) and with TNF-α protein (60 μM) was “+” in each case. In addition, the Viability entry with RAW 264.7 cells (10 μM), with RAW 264.7 cells (30 μM) and in the data set with RAW 264.7 cells (60 μM) was “−” each time. Also, the Nitrite entry in data set [1] (10 μM), in data set [1] (30 μM) and in data set [1] (60 μM) was “+” throughout.

As for `CC1(C)[C@@H]2CC[C@]1(C)[C@@H](N1C(=O)C3CC=CCC3C1=O)C2` (stereo partly drawn) [Compound 115], the TNF-α entry in the data set on TNF-α protein (10 μM), in the data set with TNF-α protein (30 μM) and in the data set with TNF-α protein (60 μM) was “+” each time. In addition, the Viability result with RAW 264.7 cells (10 μM), in the data set with RAW 264.7 cells (30 μM) and in the data set on RAW 264.7 cells (60 μM) was “−” throughout. Moreover, the Nitrite entry in data set [1] (10 μM), in data set [1] (30 μM) and in data set [1] (60 μM) was “+” throughout.

Regarding `CC1(C)[C@@H]2CC[C@@]1(C)[C@@H](N1C(=O)C3C4C=CC(C4)C3C1=O)C2` (stereo partly drawn) [Compound 116], the TNF-α entry in the data set with TNF-α protein (10 μM), with TNF-α protein (30 μM) and with TNF-α protein (60 μM) was “NS” each time. Besides, the Viability result was “−” with RAW 264.7 cells (10 μM), “−” in the data set with RAW 264.7 cells (30 μM) and “NS” with RAW 264.7 cells (60 μM). Also, the Nitrite entry in data set [1] (10 μM), in data set [1] (30 μM) and in data set [1] (60 μM) was “NS” in each case.

As to `CC1(C)[C@@H]2CC[C@]1(C)[C@@H](N1C(=O)C3C4C=CC(C4)C3C1=O)C2` (stereo partly drawn) [Compound 117], the TNF-α result in the data set on TNF-α protein (10 μM), with TNF-α protein (30 μM) and with TNF-α protein (60 μM) was “+” in each case. The Viability result in the data set on RAW 264.7 cells (10 μM), in the data set with RAW 264.7 cells (30 μM) and in the data set with RAW 264.7 cells (60 μM) was “−” throughout. The Nitrite result in data set [1] (10 μM), in data set [1] (30 μM) and in data set [1] (60 μM) was “+” each time.

For the compound `C[C@H]1[C@H](N2C(=O)C3CC=CCC3C2=O)C[C@@H]2C[C@H]1C2(C)C` (stereo partly drawn) [Compound 118], the TNF-α result with TNF-α protein (10 μM), in the data set with TNF-α protein (30 μM) and in the data set with TNF-α protein (60 μM) was “+” each time. In addition, the Viability result with RAW 264.7 cells (10 μM), in the data set on RAW 264.7 cells (30 μM) and in the data set with RAW 264.7 cells (60 μM) was “−” each time. In addition, the Nitrite result in data set [1] (10 μM), in data set [1] (30 μM) and in data set [1] (60 μM) was “+” each time.

Consider `C[C@H]1[C@H](N2C(=O)C3C4C=CC(C4)C3C2=O)C[C@@H]2C[C@H]1C2(C)C` (stereo partly drawn) [Compound 119], for which the TNF-α entry in the data set on TNF-α protein (10 μM), in the data set on TNF-α protein (30 μM) and with TNF-α protein (60 μM) was “+” throughout. In addition, the Viability result in the data set with RAW 264.7 cells (10 μM), in the data set on RAW 264.7 cells (30 μM) and in the data set with RAW 264.7 cells (60 μM) was “−” each time. For the same compound, the Nitrite result in data set [1] (10 μM), in data set [1] (30 μM) and in data set [1] (60 μM) was “+” each time.
